Columns and labels:
RAW264.7 [1] = test: Effect of compound on osteoclasts formation (compound concentration of 100 nM and RANKL at 50 ng/ml) as observed in clonal RAW264.7 cells; format: functional, Mus musculus
[2] = Dissociation constant determined by the pH-metric method; format: functional
RAW264.7 [3] = test: Effect of compound on osteoclasts formation (compound concentration of 100 nM, RANKL at 50 ng/ml and ODQ at 10 uM) as observed in clonal RAW264.7 cells; format: functional, Mus musculus
[4] = Affinity for hydroxyapatite after 24 hours; format: functional
Rattus [5] = test: Effect of compound on osteoclast resorption activity at concentration of 100 nM in rat femur; format: functional
Rattus norvegicus = organism: Rattus norvegicus; test: Effect of compound on osteoclasts formation at concentration of 100 nM in rat femurs; format: functional, Femur
Rattus [6] = test: Effect of compound on osteoclast resorption activity at concentration of 100 nM in rat femurs; format: functional, Femur

| SMILES | Count (RAW264.7 [1]) | pKa1 [2] | pKa2 [2] | pKa3 [2] | pKa4 [2] | Count (RAW264.7 [3]) | Affinity [4] | Ratio (Rattus [5]) | Count (Rattus norvegicus) | Ratio (Rattus [6]) |
| --- | --- | --- | --- | --- | --- | --- | --- | --- | --- | --- |
| O=[N+]([O-])OCCCCC(O)(P(=O)(O)O)P(=O)(O)O | 32.8 | < 1.5 | 2.85 | 6.83 | 11.3 | 59.6 | 43.4% | – | – | – |
| CCCCCN(C)CCC(O)(P(=O)(O)O)P(=O)(O)O [IBANDRONIC ACID] | 39.8 | – | – | – | – | 34.2 | – | – | – | – |
| O=P(O)(O)C(Sc1ccc(Cl)cc1)P(=O)(O)O | – | < 1.5 | 2.27 | 6.31 | 10.6 | – | 58.4% | – | – | – |
| CCCCC(P(=O)(O)O)P(=O)(O)O | 61.2 | – | – | – | – | 62.4 | – | – | – | – |
| O=[N+]([O-])OCCCCC(P(=O)(O)O)P(=O)(O)O | 40.2 | < 1.5 | 3.08 | 6.87 | 11.5 | 58.9 | 65% | 1.18 | 21.88 | – |
| CC(C)C[C@H](NC(=O)[C@H](CCCCN)NC(=O)CNC(=O)[C@H](CC(C)C)NC(=O)[C@@H](NC(=O)[C@@H]1CSSC[C@H](N)C(=O)N[C@@H](CO)C(=O)N[C@@H](CC(N)=O)C(=O)N[C@@H](CC(C)C)C(=O)N[C@@H](CO)C(=O)N[C@@H]([C@@H](C)O)C(=O)N1)C(C)C)C(=O)N[C@@H](CO)C(=O)N[C@@H](CCC(N)=O)C(=O)N[C@@H](CCC(=O)O)C(=O)N[C@@H](CC(C)C)C(=O)N[C@@H](Cc1c[nH]cn1)C(=O)N[C@@H](CCCCN)C(=O)N[C@@H](CC(C)C)C(=O)N[C@@H](CCC(N)=O)C(=O)N[C@H](C(=O)N[C@@H](Cc1ccc(O)cc1)C(=O)N1CCC[C@H]1C(=O)N[C@@H](CCCNC(=N)N)C(=O)N[C@H](C(=O)N[C@@H](CC(N)=O)C(=O)N[C@H](C(=O)NCC(=O)N[C@@H](CO)C(=O)NCC(=O)N[C@H](C(=O)N1CCC[C@H]1C(N)=O)[C@@H](C)O)[C@@H](C)O)[C@@H](C)O)[C@@H](C)O [CALCITONIN SALMON] | – | – | – | – | – | – | – | – | 27.5 | 0.01 |
